Results taken from the supplement of paper PMC13380429.

Tests used:
Settings in all cases: 72 h
Vero E6 [1] = test: cell viability relative to DMSO; higher = less toxic
Calu-3 [2] = test: as above
Caco-2 [3] = test: as above
HepG2 [4] = test: as above
U2OS [5] = test: as above
Vero E6 [6] = test: drug sensitivity score (DSS) for viability; higher = more toxic; extreme values may be limits of the assay
Calu-3 [7] = test: as above
Caco-2 [8] = test: as above
HepG2 [9] = test: as above
U2OS [10] = test: as above
Vero E6 [11] = test: relative viability EC50 (midpoint between 100% and the lowest measured viability); higher = less toxic
Calu-3 [12] = test: as above
HepG2 [13] = test: as above
Caco-2 [14] = test: as above
U2OS [15] = test: as above

Compound	cell viability (Vero E6 [1]; 1 nM)	cell viability (Vero E6 [1]; 10 nM)	cell viability (Vero E6 [1]; 100 nM)	cell viability (Vero E6 [1]; 1000 nM)	cell viability (Vero E6 [1]; 10000 nM)	cell viability (Calu-3 [2]; 1 nM)	cell viability (Calu-3 [2]; 10 nM)	cell viability (Calu-3 [2]; 100 nM)	cell viability (Calu-3 [2]; 1000 nM)	cell viability (Calu-3 [2]; 10000 nM)	cell viability (Caco-2 [3]; 1 nM)	cell viability (Caco-2 [3]; 10 nM)	cell viability (Caco-2 [3]; 100 nM)	cell viability (Caco-2 [3]; 1000 nM)	cell viability (Caco-2 [3]; 10000 nM)	cell viability (HepG2 [4]; 1 nM)	cell viability (HepG2 [4]; 10 nM)	cell viability (HepG2 [4]; 100 nM)	cell viability (HepG2 [4]; 1000 nM)	cell viability (HepG2 [4]; 10000 nM)	cell viability (U2OS [5]; 1 nM)	cell viability (U2OS [5]; 10 nM)	cell viability (U2OS [5]; 100 nM)	cell viability (U2OS [5]; 1000 nM)	cell viability (U2OS [5]; 10000 nM)	drug sensitivity score (Vero E6 [6])	drug sensitivity score (Calu-3 [7])	drug sensitivity score (Caco-2 [8])	drug sensitivity score (HepG2 [9])	drug sensitivity score (U2OS [10])	relative viability EC50 (Vero E6 [11])	relative viability EC50 (Calu-3 [12])	relative viability EC50 (HepG2 [13])	relative viability EC50 (Caco-2 [14])	relative viability EC50 (U2OS [15])
CN(C(=O)CN(CCO)CC(=O)N(C)C(C)(C)Cc1ccccc1)C(C)(C)Cc1ccccc1 [oxethazaine]	94.8%	97.7%	93.7%	99.8%	101%	94.4%	101%	100%	97.6%	42.2%	90.7%	105%	102%	93.1%	74.6%	104%	101%	98.9%	111%	91.2%	99.7%	97.5%	101%	97.2%	68.2%	0	3.4	1.9	0	1.9	> 10 µM	2.86 µM	> 10 µM	–	–
CO[C@@]1(NC(=O)CSCC#N)C(=O)N2C(C(=O)O)=C(CSc3nnnn3C)CS[C@@H]21 [cefmetazole]	96.7%	102%	102%	97.9%	93.2%	101%	97.6%	99.7%	108%	108%	109%	106%	108%	94.7%	105%	106%	105%	99.7%	97.4%	117%	–	–	–	–	–	0	0	0	0	–	> 10 µM	> 10 µM	> 10 µM	> 10 µM	–
COC(=O)/C=C/c1cc(O)ccc1O [erbstatin-analog]	98.8%	96.1%	94.7%	74.8%	22.6%	113%	97.6%	106%	99.2%	73.3%	97.7%	102%	91.8%	94.3%	40.9%	92%	101%	99.8%	102%	50%	101%	103%	95.2%	97.4%	34.8%	7.6	1.2	4.1	2.5	3.9	1.41 µM	–	3.37 µM	2.37 µM	2.86 µM
CN(C)CCCN1c2ccccc2CCc2ccccc21 [imipramine]	100%	98.7%	99.4%	96.6%	98.5%	88.8%	105%	96.1%	108%	94.3%	–	–	–	–	–	95.9%	102%	104%	95.3%	98.1%	101%	103%	96%	102%	90.4%	0	0	–	0	0	> 10 µM	> 10 µM	> 10 µM	–	> 10 µM
Cc1ccc(F)c(NC(=O)Nc2ccc(-c3cccc4[nH]nc(N)c34)cc2)c1 [linifanib]	93.1%	101%	99.9%	103%	110%	106%	89.4%	99.1%	86.9%	69.9%	101%	100%	101%	89.5%	106%	94.1%	110%	115%	29.9%	13.1%	97.4%	96.6%	101%	96.5%	92.2%	0	2.7	0	12.8	0	> 10 µM	–	0.583 µM	> 10 µM	> 10 µM
CC(=O)[C@]1(N)Cc2c(O)c3c(c(O)c2[C@@H](O[C@H]2C[C@H](O)[C@H](O)CO2)C1)C(=O)c1ccccc1C3=O [amrubicin]	96%	104%	99.8%	88.4%	32.1%	96%	117%	114%	110%	86.7%	101%	105%	99.6%	86.9%	7.4%	105%	110%	103%	84.5%	-0.2%	104%	99%	102%	102%	73.7%	5.7	0	7.3	8.1	0.9	1.87 µM	> 10 µM	1.96 µM	2.04 µM	–
N=C(Nc1ccc(I)cc1)NC1C2CC3CC(C2)CC1C3 (stereo not given) [IPAG]	95.7%	102%	94.5%	94.2%	63.8%	106%	103%	98.2%	101%	77.2%	103%	98.4%	97.9%	88.3%	16.2%	97.7%	96%	87.6%	84.8%	17%	103%	102%	105%	96.4%	93.8%	2.7	0.7	6.6	7.1	0	–	> 10 µM	1.81 µM	2.05 µM	> 10 µM
